From ChEMBL document CHEMBL1914405, “Discovery of novel spirocyclic inhibitors of fatty acid amide hydrolase (FAAH). Part 1: identification of 7-azaspiro[3.5]nonane and 1-oxa-8-azaspiro[4.5]decane as lead scaffolds” (Bioorg Med Chem Lett, 2011)
Active and inactive are the calls of the source. No cut-off for these calls is given here.

Tests used:
[1] = biological target: T1, Fatty-acid amide hydrolase 1 (Homo sapiens) (UniProt O00519); assay: Ratio of Kinact to Ki for human FAAH by enzyme coupled assay
T1 sequence (whole entry): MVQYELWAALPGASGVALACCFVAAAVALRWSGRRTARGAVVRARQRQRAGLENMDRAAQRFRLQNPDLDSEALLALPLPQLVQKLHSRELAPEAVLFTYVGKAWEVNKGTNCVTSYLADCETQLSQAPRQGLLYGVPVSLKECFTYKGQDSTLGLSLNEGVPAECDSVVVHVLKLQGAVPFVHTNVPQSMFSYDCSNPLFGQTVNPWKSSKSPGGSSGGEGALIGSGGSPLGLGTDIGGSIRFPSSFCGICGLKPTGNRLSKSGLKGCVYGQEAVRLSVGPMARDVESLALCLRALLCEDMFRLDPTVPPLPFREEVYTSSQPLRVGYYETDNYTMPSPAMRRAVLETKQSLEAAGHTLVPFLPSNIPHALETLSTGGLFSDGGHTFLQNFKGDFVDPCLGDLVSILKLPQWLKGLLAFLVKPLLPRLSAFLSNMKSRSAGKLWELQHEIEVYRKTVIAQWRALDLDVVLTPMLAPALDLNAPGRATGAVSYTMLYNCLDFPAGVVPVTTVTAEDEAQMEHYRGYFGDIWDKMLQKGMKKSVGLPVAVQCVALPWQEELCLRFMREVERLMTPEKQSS

[2] = biological target: Voltage-gated inwardly rectifying potassium channel KCNH2 (Homo sapiens, UniProt Q12809); assay: Inhibition of human ERG
Rattus norvegicus = assay: Analgesic activity against complete Freund's adjuvant-induced pain in rat at 25 mg/kg, ip; assay type: functional, organism-based; design: dose 25 mg/kg

Voltage-gated inwardly rectifying potassium channel KCNH2, sequence (Q12809 whole entry): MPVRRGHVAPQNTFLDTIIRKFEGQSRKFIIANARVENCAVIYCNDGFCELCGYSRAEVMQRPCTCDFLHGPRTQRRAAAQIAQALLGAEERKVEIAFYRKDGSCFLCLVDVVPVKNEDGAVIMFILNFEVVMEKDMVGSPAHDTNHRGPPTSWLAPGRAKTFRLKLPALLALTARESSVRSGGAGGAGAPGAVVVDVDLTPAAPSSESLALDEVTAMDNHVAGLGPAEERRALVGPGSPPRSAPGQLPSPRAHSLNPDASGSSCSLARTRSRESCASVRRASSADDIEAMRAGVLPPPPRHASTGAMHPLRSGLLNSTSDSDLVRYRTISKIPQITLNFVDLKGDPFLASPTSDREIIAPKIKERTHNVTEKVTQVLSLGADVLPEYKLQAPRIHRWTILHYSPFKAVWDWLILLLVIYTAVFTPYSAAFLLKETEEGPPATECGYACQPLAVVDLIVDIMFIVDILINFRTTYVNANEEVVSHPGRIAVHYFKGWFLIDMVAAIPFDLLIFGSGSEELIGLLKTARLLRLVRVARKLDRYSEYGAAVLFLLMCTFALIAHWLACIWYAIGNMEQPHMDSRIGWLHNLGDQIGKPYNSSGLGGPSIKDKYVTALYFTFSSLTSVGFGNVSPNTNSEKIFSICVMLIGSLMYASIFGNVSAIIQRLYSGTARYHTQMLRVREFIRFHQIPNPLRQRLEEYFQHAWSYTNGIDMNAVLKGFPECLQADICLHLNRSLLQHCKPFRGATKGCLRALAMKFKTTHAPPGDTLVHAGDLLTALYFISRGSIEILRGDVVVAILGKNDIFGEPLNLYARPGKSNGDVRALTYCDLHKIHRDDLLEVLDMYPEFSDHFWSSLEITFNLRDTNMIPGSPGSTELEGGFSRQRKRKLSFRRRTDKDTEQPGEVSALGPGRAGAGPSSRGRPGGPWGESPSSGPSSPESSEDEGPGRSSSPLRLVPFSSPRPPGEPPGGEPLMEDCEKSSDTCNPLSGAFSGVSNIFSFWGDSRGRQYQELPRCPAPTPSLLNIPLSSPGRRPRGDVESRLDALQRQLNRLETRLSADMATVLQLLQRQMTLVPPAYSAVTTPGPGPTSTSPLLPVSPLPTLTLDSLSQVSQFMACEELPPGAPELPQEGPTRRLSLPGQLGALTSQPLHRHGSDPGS

SMILES | Ratio [1] | inhibition (INH) [2] | Activity (Rattus norvegicus)
O=C(Nc1cccnn1)N1CCC2(CC1)CC(CCc1cccc(Oc3ccc(C(F)(F)F)cn3)c1)C2 | 344 M⁻¹ s⁻¹ | – | –
O=C(Nc1cccnc1)N1CCC2(CC1)CC(c1cccc(Oc3ccc(C(F)(F)F)cn3)c1)C2 | 914 M⁻¹ s⁻¹ | – | –
O=C(Nc1cccnn1)N1CCC2(CC1)CC(Cc1cccc(Oc3ccc(C(F)(F)F)cn3)c1)C2 | 272 M⁻¹ s⁻¹ | – | –
Cc1noc(NC(=O)N2CCC3(CC2)CC(c2cccc(Oc4ccc(C(F)(F)F)cn4)c2)CO3)c1C (stereo not drawn) | 515 M⁻¹ s⁻¹ | – | –
O=C(Nc1cccnc1)N1CCC2(CC1)CC(Cc1cccc(Oc3ccc(C(F)(F)F)cn3)c1)CO2 (stereo not drawn) | 846 M⁻¹ s⁻¹ | – | –
O=C(Nc1cccnc1)N1CCC2(CC1)CC(c1cccc(Oc3ccc(C(F)(F)F)cn3)c1)CO2 (stereo not drawn) | 2080 M⁻¹ s⁻¹ | – | –
O=C(Nc1cccnn1)N1CCC2(CCC(c3cccc(Oc4ccc(C(F)(F)F)cn4)c3)C2)CC1 (stereo not drawn) | 307 M⁻¹ s⁻¹ | – | –
O=C(Nc1cccnn1)N1CCC2(CC1)CN(c1cccc(Oc3ccc(C(F)(F)F)cn3)c1)C2 | 18.3 M⁻¹ s⁻¹ | – | –
Cc1noc(NC(=O)N2CCC3(CC2)CC(c2cccc(Oc4ccc(C(F)(F)F)cn4)c2)C3)c1C | 1760 M⁻¹ s⁻¹ | Active | Active

Second part, led by results:

Ratio [1] | SMILES | inhibition (INH) [2] | Activity (Rattus norvegicus)
3130 M⁻¹ s⁻¹ | O=C(Nc1cccnn1)N1CCC2(CC1)CC(c1cccc(Oc3ccc(C(F)(F)F)cn3)c1)CO2 (racemic) | – | –
1570 M⁻¹ s⁻¹ | O=C(Nc1cccnn1)N1CCC2(CC1)CC(c1cccc(Oc3ccc(C(F)(F)F)cn3)c1)C2 | Active | –
229 M⁻¹ s⁻¹ | O=C(Nc1cccnn1)N1CCC2(CCC(c3cccc(Oc4ccc(C(F)(F)F)cn4)c3)O2)CC1 (stereo not drawn) | – | –
1340 M⁻¹ s⁻¹ | O=C(Nc1cccnn1)N1CCC2(CC1)C[C@@H](c1cccc(Oc3ccc(C(F)(F)F)cn3)c1)CO2 | – | –
3040 M⁻¹ s⁻¹ | O=C(Nc1cccnn1)N1CCC2(CC1)C[C@H](c1cccc(Oc3ccc(C(F)(F)F)cn3)c1)CO2 | Active | –
